Data published in patent US8030354B2, “Substituted biphenyl GPR40 modulators” (Amgen Inc., priority 2007, dated 2011).

biological target: GPR40 (Homo sapiens, UniProt O14842); experiment: Cell-based aequorin assay (CHO cells stably expressing GPR40 and aequorin); design: expressed in transfected cells; host or cells: CHO cells stably transfected with GPR40 and aequorin; conditions: activation of human GPR40, CHO cells, 0.01% HSA
Summary of the method: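 CHO cells stably co-expressing GPR40 and aequorin, loaded with coelenterazine (1 ug/mL, 2 h, room temperature) in H/HBSS with 20 mM Hepes and 0.01% fatty acid-free HSA. Serially diluted compounds added; luminescence recorded over 20 s. EC50 from dose-response of maximum relative light units.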

Chain of GPR40 (O14842 whole entry): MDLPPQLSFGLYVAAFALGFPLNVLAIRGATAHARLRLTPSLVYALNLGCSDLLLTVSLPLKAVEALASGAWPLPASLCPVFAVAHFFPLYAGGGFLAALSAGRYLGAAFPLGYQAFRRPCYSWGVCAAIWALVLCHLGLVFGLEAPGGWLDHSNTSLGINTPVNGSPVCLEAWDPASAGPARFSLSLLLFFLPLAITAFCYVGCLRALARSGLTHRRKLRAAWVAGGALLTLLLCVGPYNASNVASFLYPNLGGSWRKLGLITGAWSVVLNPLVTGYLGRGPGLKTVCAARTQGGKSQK

COCC1(c2cc(COc3cccc(C(CC(=O)O)C4CC4)c3F)ccc2-c2cc(OC)ncc2F)CCCC1 (single isomer, unassigned) [Example 83.30, (3S)-3-(3-(4-(5-Fluoro-2-methoxypyridin-4-yl)-3-(1-(methoxymethyl)cyclopentyl)benzyloxy)-2-fluorophenyl)-3-cyclopropylpropanoic acid or (3R)-3-(3-(4-(5-fluoro-2-methoxypyridin-4-yl)-3-(1-(methoxymethyl)cyclopentyl)benzyloxy)-2-fluorophenyl)-3-cyclopropylpropanoic acid] and COc1cc(-c2ccc(COc3cccc([C@@H](CC(=O)O)C4CC4)c3F)cc2[C@H](OC)C(C)(C)C)c(F)cn1 (single isomer, unassigned) [Example 83.32] fall in the same range of EC50: 1000 to 10000 nM for the first, 1000 to 10000 nM for the second.

COc1ccc(F)c(-c2ccc(COc3cccc([C@@H](CC(=O)O)C4CC4)c3F)cc2[C@H](OC)C2(C)CC2)c1 (single isomer, unassigned) [Example 83.31] and COc1ccc(F)c(-c2ccc(COc3cccc(C(CC(=O)O)C4CC4)c3F)cc2C(OC)C(C)(C)OC)c1 (single isomer, unassigned) [Example 83.33] fall in the same range of EC50: 1000 to 10000 nM for the first, 1000 to 10000 nM for the second.

First: CCC(CC(=O)O)c1ccc(F)c(OCc2ccc(-c3cc(OC)ccc3F)c(C(C)(C)C)c2)c1 (single isomer, unassigned) [Example 86.2, (3R)-3-(3-(((2-(1,1-Dimethylethyl)-2′-fluoro-5′-(methyloxy)-1,1′-biphenyl-4-yl)methyl)oxy)-4-fluorophenyl)pentanoic acid or (3S)-3-(3-(((2-(1,1-dimethylethyl)-2′-fluoro-5′-(methyloxy)-1,1′-biphenyl-4-yl)methyl)oxy)-4-fluorophenyl)pentanoic acid]
Second: COC[C@H](CC(=O)O)c1cccc(OCc2ccc(-c3cc(OC)ccc3F)c(C(C)(C)C)c2)c1 (single isomer, unassigned) [Example 102, (3R)-3-(3-(((2-(1,1-Dimethylethyl)-2′-fluoro-5′-(methyloxy)-1,1′-biphenyl-4-yl)methyl)oxy)phenyl)-4-(methyloxy)butanoic acid or (3S)-3-(3-(((2-(1,1-dimethylethyl)-2′-fluoro-5′-(methyloxy)-1,1′-biphenyl-4-yl)methyl)oxy)phenyl)-4-(methyloxy)butanoic acid]
The EC50 of the first is higher: 1000 to 10000 nM for the first, 100 to 1000 nM for the second.

COc1ccc(F)c(-c2ccc(COc3cccc(C(CC(=O)O)CC(C)C)c3)cc2C(C)(C)C)c1 (single isomer, unassigned) [Example 92, (3R)-3-(3-(((2-(1,1-Dimethylethyl)-2′-fluoro-5′-(methyloxy)-1,1′-biphenyl-4-yl)methyl)oxy)phenyl)-5-methylhexanoic acid or (3S)-3-(3-(((2-(1,1-dimethylethyl)-2′-fluoro-5′-(methyloxy)-1,1′-biphenyl-4-yl)methyl)oxy)phenyl)-5-methylhexanoic acid] and COc1ccc(F)c(-c2ccc(COc3cccc([C@@H](CC(=O)O)c4ccon4)c3)cc2C(C)(C)C)c1 [Example 94.2, (3R)-3-(3-(((2-(1,1-Dimethylethyl)-2′-fluoro-5′-(methyloxy)-1,1′-biphenyl-4-yl)methyl)oxy)phenyl)-3-(3-isoxazolyl)propanoic acid] fall in the same range of EC50: 1000 to 10000 nM for the first, 1000 to 10000 nM for the second.

COc1ccc(F)c(-c2ccc(COc3cccc([C@H](CC(=O)O)C4CC4)c3)cc2C2=CCCC2(C)C)c1 (single isomer, unassigned) [Example 97.1, (3R)-3-Cyclopropyl-3-(3-(((2-(5,5-dimethyl-1-cyclopenten-1-yl)-2′-fluoro-5′-(methyloxy)-1,1′-biphenyl-4-yl)methyl)oxy)phenyl)propanoic acid or (3S)-3-cyclopropyl-3-(3-(((2-(5,5-dimethyl-1-cyclopenten-1-yl)-2′-fluoro-5′-(methyloxy)-1,1′-biphenyl-4-yl)methyl)oxy)phenyl)propanoic acid] and COc1ccc(F)c(-c2ccc(COc3cccc(C(CC(=O)O)C4CC4)c3F)cc2C2=CCCC2(C)C)c1 (single isomer, unassigned) [Example 99.1, (3R)-3-Cyclopropyl-3-(3-(((2-(5,5-dimethyl-1-cyclopenten-1-yl)-2′-fluoro-5′-(methyloxy)-1,1′-biphenyl-4-yl)methyl)oxy)-2-fluorophenyl)propanoic acid or (3S)-3-cyclopropyl-3-(3-(((2-(5,5-dimethyl-1-cyclopenten-1-yl)-2′-fluoro-5′-(methyloxy)-1,1′-biphenyl-4-yl)methyl)oxy)-2-fluorophenyl)propanoic acid] fall in the same range of EC50: 1000 to 10000 nM for the first, 1000 to 10000 nM for the second.

First: COc1ccc(F)c(-c2ccc(COc3cccc(C(CC(=O)O)C4CC4)c3)cc2C2CCCC2(C)C)c1 (single isomer, unassigned) [Example 97.2]
Second: CCC(CC(=O)O)c1cccc(OCc2ccc(-c3cc(OC)ccc3F)c(C3CCCC3(C)C)c2)c1 (single isomer, unassigned) [Example 98.1]
The EC50 of the first is higher: 1000 to 10000 nM for the first, 100 to 1000 nM for the second.

First: CCC(CC(=O)O)c1cccc(OCc2ccc(-c3cc(OC)ccc3F)c(C3CCCC3(C)C)c2)c1 (single isomer, unassigned) [Example 98.2]
Second: COc1ccc(F)c(-c2ccc(COc3cccc(CCC(=O)O)c3)cc2C2CCCC2(C)C)c1 (centres unmarked) [Example 61.1, 3-(3-(((2-(2,2-Dimethylcyclopentyl)-2′-fluoro-5′-(methyloxy)-1,1′-biphenyl-4-yl)methyl)oxy)phenyl)propanoic acid]
The EC50 of the first is higher: 1000 to 10000 nM for the first, 100 to 1000 nM for the second.

COc1ccc(F)c(-c2ccc(COc3cccc([C@H](CC(=O)O)C4CC4)c3F)cc2[C@H]2CCCC2(C)C)c1 (single isomer, unassigned) [Example 99.3] and CCC(CC(=O)O)c1cccc(OCc2ccc(-c3cc(OC)ccc3F)c(C3CCCC3(C)C)c2)c1F (single isomer, unassigned) [Example 100.1] fall in the same range of EC50: 1000 to 10000 nM for the first, 1000 to 10000 nM for the second.

CCC(CC(=O)O)c1cccc(OCc2ccc(-c3cc(OC)ccc3F)c(C3CCCC3(C)C)c2)c1F (single isomer, unassigned) [Example 100.2] and CCC(CC(=O)O)c1cc(F)cc(OCc2ccc(-c3cc(OC)ccc3F)c(C3CCCC3(C)C)c2)c1F (single isomer, unassigned) [Example 101.2] fall in the same range of EC50: 100 to 1000 nM for the first, 100 to 1000 nM for the second.

CCC(CC(=O)O)c1cc(F)cc(OCc2ccc(-c3cc(OC)ccc3F)c(C3=CCCC3(C)C)c2)c1F (single isomer, unassigned) [Example 101.1, (3S)-3-(3-(((2-(5,5-Dimethyl-1-cyclopenten-1-yl)-2′-fluoro-5′-(methyloxy)-1,1′-biphenyl-4-yl)methyl)oxy)-2,5-difluorophenyl)pentanoic acid or (3R)-3-(3-(((2-(5,5-dimethyl-1-cyclopenten-1-yl)-2′-fluoro-5′-(methyloxy)-1,1′-biphenyl-4-yl)methyl)oxy)-2,5-difluorophenyl)pentanoic acid] and COc1ccc(F)c(-c2ccc(COc3cccc([C@@H](CC(=O)O)c4ccon4)c3)cc2C2=CCCC2(C)C)c1 [Example 94.1, (3R)-3-(3-(((2-(5,5-Dimethyl-1-cyclopenten-1-yl)-2′-fluoro-5′-(methyloxy)-1,1′-biphenyl-4-yl)methyl)oxy)phenyl)-3-(3-isoxazolyl)propanoic acid] fall in the same range of EC50: 1000 to 10000 nM for the first, 1000 to 10000 nM for the second.

First: COc1cccc(-c2ccc(COc3cccc(CCC(=O)O)c3)cc2C)c1 [Example 1, 3-(3-(((2-Methyl-3′-(methyloxy)-1,1′-biphenyl-4-yl)methyl)oxy)phenyl)propanoic acid]
Second: COc1cccc(-c2ccc(COc3cccc(CCC(=O)O)c3)cc2C(C)(C)C)c1 [Example 40, 3-(3-(((2-(1,1-Dimethylethyl)-3′-(methyloxy)-1,1′-biphenyl-4-yl)methyl)oxy)phenyl)propanoic acid]
The EC50 of the first is higher: 1000 to 10000 nM for the first, 100 to 1000 nM for the second.

First: COc1ccc(F)c(-c2ccc(COc3cccc(CCC(=O)O)c3)cc2C)c1 [Example 2, 3-(3-(((2′-Fluoro-2-methyl-5′-(methyloxy)-1,1′-biphenyl-4-yl)methyl)oxy)phenyl)propanoic acid]
Second: CCCCOc1cc(COc2cccc(CCC(=O)O)c2)ccc1-c1cc(OC)ccc1F [Example 13, 3-(3-(((2-(Butyloxy)-2′-fluoro-5′-(methyloxy)-1,1′-biphenyl-4-yl)methyl)oxy)phenyl)propanoic acid]
The EC50 of the first is lower: 100 to 1000 nM for the first, 1000 to 10000 nM for the second. The first is the more potent here.

CCCCOc1ccc(OC)cc1-c1ccc(COc2cccc(CCC(=O)O)c2)cc1C [Example 4, 3-(3-(((2′-(Butyloxy)-2-methyl-5′-(methyloxy)-1,1′-biphenyl-4-yl)methyl)oxy)phenyl)propanoic acid] and CCOc1cccc(-c2ccc(COc3cccc(CCC(=O)O)c3)cc2C(C)(C)C)c1 [Example 41, 3-(3-(((2-(1,1-Dimethylethyl)-3′-(ethyloxy)-1,1′-biphenyl-4-yl)methyl)oxy)phenyl)propanoic acid] fall in the same range of EC50: 1000 to 10000 nM for the first, 1000 to 10000 nM for the second.

CSc1cccc(-c2ccc(COc3cccc(CCC(=O)O)c3)cc2C(C)(C)C)c1 [Example 61.4, 3-(3-(((2-(1,1-Dimethylethyl)-3′-(methylsulfanyl)-1,1′-biphenyl-4-yl)methyl)oxy)phenyl)propanoic acid] and COc1ccc(F)c(-c2ccc(COc3cncc(CCC(=O)O)c3)cc2C(C)(C)C)c1 [Example 96, 3-(5-(((2-(1,1-Dimethylethyl)-2′-fluoro-5′-(methyloxy)-1,1′-biphenyl-4-yl)methyl)oxy)-3-pyridinyl)propanoic acid] fall in the same range of EC50: 1000 to 10000 nM for the first, 1000 to 10000 nM for the second.

COc1ccc(F)c(-c2ccc(COc3cccc(C4(CC(=O)O)CCCCC4)c3)cc2C(C)(C)C)c1 [Example 105.2, {1-[3-(2-tert-Butyl-2′-fluoro-5′-methoxy-biphenyl-4-ylmethoxy)-phenyl]-cyclohexyl}-acetic acid] was tested, and the EC50 was 1000 to 10000 nM.
